Test [1] concerns dimeric G-quadruplexes (TTA45). Put plainly: Fluorescence response of BMPQ-1 to DNA. The test is classed as binding, human. The following applies: 3 μM BMPQ-1, 2 μM TTA45, λex = 395 nm. How it is done: Figure 1. (A) Structure of BMPQ-1. (B) Fluorescence spectra of BMPQ-1 at λex = 395 nm in the absence or presence of dimeric G-quadruplexes (TTA45), monomeric G-quadruplexes (c-KIT1, c-KIT2, c-MYCPu22, TTA, VEGF, TBA), trinucleotide DNA (CGG12), duplex DNA (19AT) and single-stranded DNA (dT30). The concentration of BMPQ-1 was 3 μM. The concentration of TTA45 was 2 μM and DNAs with other structures were 4 μM. (C) Fluorescence spectra of 6 μM BMPQ-1 at λex = 395 nm in the absence or presence of 2 μM telomeric G-quadruplexes. Oligonucleotide samples were prepared in solution with 10 mM K2HPO4/KH2PO4, pH 7.0, 100 mM KCl. (D) Effect of BMPQ-1 on the CD spectra of 10 μM TTA45 in 10 mM Tris-HCl buffer (pH 7.4) containing 100 mM KCl.
G-quadruplex forming oligonucleotides were annealed in the buffer (10 mM K2HPO4/KH2PO4 pH 7.0, 100 mM KCl) by heating to 95°C for 5 min, followed by gradual cooling to room temperature. Fluorescence spectra were detected by RF-5301PC spectrofluorophotometer (Shimadzu, Japan) at room temperature. The spectra were recorded with 5 nm excitation and emission slit widths. […] For the fluorescence measurements between BMPQ-1 and different DNA sequences, the final concentrations of multimeric G-quadruplex forming oligonucleotides were 2 μM and other DNA oligonucleotides were 4 μM.

The next test deals with γH2AX foci in A549 cells. Description: Immunofluorescence of γH2AX and TRF2 foci. The test is classed as cell-based, human. The following applies: A549, 1.5 μM, 24 h. How it is done:
The cells (5 × 10^4 cells) were seeded on 35-mm glass-bottomed dishes and grown for 24 h for attachment. Then old medium was replaced by fresh DMEM containing 1.5 μM BMPQ-1 and incubated for 24 h. After washed three times with PBS buffer, the cells were fixed in 4% paraformaldehyde/PBS for 15 min and then permeabilized with 0.3% Triton-X 100/PBS at 37°C for 20 min. Then the cells were blocked with 5% BSA/PBS at 37°C for 1 h. Finally, the cells were incubated with primary antibodies at 37°C for 3 h. After that, the cells were washed six times with blocking buffer, and were then incubated with secondary antibodies at 37°C for 3 h. Finally, the cells were washed six times with PBS buffer again. The digital images were recorded using a confocal laser scanning microscopy (Olympus FV1000) and analyzed with ImageJ software. One hundred nuclei were counted in each group. […]
Figure 2. […] (B) Quantification of the number of γH2AX foci per nucleus in A549 cells treated with or without BMPQ-1. (C) Quantification of the colocalization of γH2AX and TRF2 per nucleus in A549 cells treated with or without BMPQ-1. […] (E) Quantification of the number of BG4 foci per nucleus in A549 cells treated with or without BMPQ-1. (F) Quantification of the colocalized BG4 and TRF2 per nucleus in A549 cells treated with or without BMPQ-1.

Test [2] has as its system FAM-TTA45-TAMRA (DNA, G4) GGGTTAGGGTTAGGGTTAGGGTTAGGGTTAGGGTTAGGGTTAGGG
Put plainly: FRET melting. Conditions: 100 mM K+ (KCl) plus potassium phosphate; 10 mM K2HPO4/KH2PO4 pH 7.0; 0.5 µM DNA, 20 µM compound.

The subject of test [3] is Tel26 (DNA, G4) AAAGGGTTAGGGTTAGGGTTAGGGAA
Description: CD titration. Conditions: 100 mM K+; 10 mM Tris-HCl pH 7.4; 265 nm peak decreased.

Data on one compound can be found in article PMC7672424 (Nucleic Acids Research, 2020).

By ΔTm is commonly meant the change in melting temperature against a reference sample.

`Cc1ccc(Cn2cc3c(-c4ccc5c(c4)OCO5)nnc-3c3cc4c(cc32)OCO4)cc1` [BMPQ-1]: the “fluorescence increase at 521 nm” value in test [1] was 10 fold. Besides, the “co-localization between γH2AX foci and TRF2” value in the test with γH2AX foci in A549 cells was “increase on the co-localization between γH2AX foci and TRF2 was observed with statistical significance”. Besides, the “average number of γH2AX foci in individual cells” value in the test on γH2AX foci in A549 cells (compared with control) is recorded as “trebled”. In test [2], the ΔTm came to 16.09 ± 1.79 °C. Moreover, the binding result in test [3] is reported as “yes”.
